According to ChEMBL document CHEMBL5724564, “Patient-derived NASH model to assess the effects of chemical probes on hepatocyte regenerations” (2024):

System: Hepatocyte spheroids
Assay: Cell viability is assessed by cellular ATP assay using CellTiter-Glo Luminescent kit. Viability is expressed as average RLU from biological replicates and normalized to negative control.Toxicity is defined as those with normalized ATP significantly less than 80 percent of the negative control.
Assay type: functional, Homo sapiens
Parameters: unit not given here

| SMILES | Proliferation |
| --- | --- |
| O=C(NOC[C@H](O)CO)c1ccc(F)c(F)c1Nc1ccc(I)cc1F [MIRDAMETINIB] | 0 |
| O=S(=O)(NC1CCC(c2cc(F)ccc2F)(S(=O)(=O)c2ccc(Cl)cc2)CC1)C(F)(F)F (stereo not drawn) [MRK-560] | 0.1212 |
| Cc1cc(Nc2nccc(C)n2)cc(-c2cnc([C@@]3(O)CC[C@H](C(=O)O)C(C)(C)C3)s2)c1 [MRL-SYKi] | 0 |
| CC(=O)Nc1c(C(C)=O)c(=O)n(C)c2nc(-c3ccc(Cl)cc3Cl)c(-c3ccc(Cl)cc3)cc12 [NAPHTHYRIDINONE] | 0.005874 |
| Cn1c(=O)c(Oc2ccc(F)cc2F)cc2cnc(NC(CCO)CCO)nc21 [PAMAPIMOD] | 0.003154 |
| Cn1cnc2c(F)c(Nc3ccc(Br)cc3Cl)c(C(=O)NOCCO)cc21 [SELUMETINIB] | 0.04298 |
| Cn1cc(-c2ccc3nnc(Sc4ccc5ncccc5c4)n3n2)cn1 [SGX-523] | 0.3569 |
| O=C1c2ccc(Nc3ccc(F)cc3F)cc2CCc2ccc(OC[C@H](O)CO)cc21 [Skepinone-L] | 0.2651 |
| COc1cccc(CNC(=O)c2nc3scc(COCc4ccc(C(=O)O)cc4)c3c(=O)[nH]2)c1 [T-26c] | 0.5771 |
| Nc1nc2[nH]cnc2c(=S)[nH]1 [THIOGUANINE] | 0.05104 |
| C[C@@H]1CCN(C(=O)CC#N)C[C@@H]1N(C)c1ncnc2[nH]ccc12.O=C(O)CC(O)(CC(=O)O)C(=O)O [TOFACITINIB CITRATE] | 0.01527 |
| CC(=O)Nc1cccc(-n2c(=O)n(C3CC3)c(=O)c3c(Nc4ccc(I)cc4F)n(C)c(=O)c(C)c32)c1 [TRAMETINIB] | 0 |
| NC(=O)c1ccc(N(C(N)=O)c2c(F)cccc2F)nc1-c1ccc(F)cc1F [VX-702] | 0.02591 |
